Test results: article PMC2898210 (ACS medicinal chemistry letters, 2010)

Target: polo-box domain (PBD) of human polo-like kinase 1 (Plk1) (Homo sapiens, UniProt P53350)
Experiment: ELISA-based PBD competition assay against p-T78 peptide of PBIP1
Assay type: binding

polo-box domain (PBD) of human polo-like kinase 1 (Plk1), sequence (P53350 367-603 limits assumed): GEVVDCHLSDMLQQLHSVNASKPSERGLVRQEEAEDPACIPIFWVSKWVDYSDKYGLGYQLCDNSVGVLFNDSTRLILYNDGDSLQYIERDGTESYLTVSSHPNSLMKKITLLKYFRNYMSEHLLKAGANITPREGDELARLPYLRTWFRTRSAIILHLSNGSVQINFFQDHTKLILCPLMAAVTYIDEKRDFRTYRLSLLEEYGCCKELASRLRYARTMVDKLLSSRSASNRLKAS

Kd: ~2700 nM
SMILES: O=c1c(O)cccc2cc(O)c(O)c(O)c12 [compound 2, Purpurogallin]
